Data on 14 molecules can be found in ChEMBL document CHEMBL3046874, “Synthesis and biological evaluation of chalcones and acetyl pyrazoline derivatives comprising furan nucleus as an antitubercular agents” (2012).

Type in all cases: functional
One assay relates to Proteus vulgaris. Description: Antibacterial activity against Proteus vulgaris ATCC 29905 after 24 hr by agar well diffusion method. (In general: Agar diffusion results depend on both activity and mobility in agar.)
The test system of a further assay is Aspergillus niger. As to the kind of experiment: Antifungal activity against Aspergillus niger ATCC 9029 after 7 days by agar plate method.
The next assay has as its system Priestia megaterium. Description: Antibacterial activity against Bacillus megaterium ATCC 14518 after 24 hr by agar well diffusion method.
In the next assay the test system is Staphylococcus aureus. As to the kind of experiment: Antibacterial activity against Staphylococcus aureus ATCC 25923 after 24 hr by agar well diffusion method.
For a further assay, the system named is Escherichia coli. Description: Antibacterial activity against Escherichia coli ATCC 25922 after 24 hr by agar well diffusion method.
Assay [1] has as its system Mycobacterium tuberculosis. Description: Growth inhibition of Mycobacterium tuberculosis H37Rv at 0.25 ug/ml by radiometric anlaysis. The following applies: read-out: GI.

Molecules are shown by their SMILES.

For `O=C(/C=C/c1ccc(-c2ccc(Cl)c(Cl)c2)o1)c1ccccc1`, the “inhibition zone (IZ)” value in the assay on Proteus vulgaris was 15 mm; in the assay with Priestia megaterium it was 20 mm; in the assay with Staphylococcus aureus, 14 mm; with Escherichia coli, 19 mm. Besides, the “diameter of the inhibition zone (DIZ)” value in the assay with Aspergillus niger is listed as 19 mm.

As to `Nc1cccc(C(=O)/C=C/c2ccc(-c3ccc(Cl)c(Cl)c3)o2)c1`, the “inhibition zone (IZ)” value was 17 mm in the assay with Proteus vulgaris, 14 mm with Priestia megaterium, 19 mm with Staphylococcus aureus and 16 mm in the assay with Escherichia coli. Besides, in the assay on Aspergillus niger, the “diameter of the inhibition zone (DIZ)” value is listed as 17 mm.

For the molecule `Nc1ccc(C(=O)/C=C/c2ccc(-c3ccc(Cl)c(Cl)c3)o2)cc1`, the “inhibition zone (IZ)” value in the assay with Proteus vulgaris is listed as 12 mm; with Priestia megaterium, 17 mm; in the assay with Staphylococcus aureus, 12 mm; in the assay with Escherichia coli, 13 mm. The “diameter of the inhibition zone (DIZ)” value with Aspergillus niger worked out at 18 mm.

In the case of `O=C(/C=C/c1ccc(-c2ccc(Cl)c(Cl)c2)o1)c1ccc(Br)cc1`, the “inhibition zone (IZ)” value in the assay with Proteus vulgaris was found to be 16 mm; in the assay on Priestia megaterium, 21 mm; in the assay with Staphylococcus aureus it was 19 mm; with Escherichia coli, 20 mm. Moreover, the “diameter of the inhibition zone (DIZ)” value in the assay with Aspergillus niger is 21 mm.

On to `O=C(/C=C/c1ccc(-c2ccc(Cl)c(Cl)c2)o1)c1ccc(Cl)cc1`, for which the “inhibition zone (IZ)” value in the assay on Proteus vulgaris amounted to 15 mm; in the assay with Priestia megaterium, 15 mm; in the assay with Staphylococcus aureus, 20 mm; in the assay with Escherichia coli it was 14 mm. Further, the “diameter of the inhibition zone (DIZ)” value with Aspergillus niger came to 14 mm.

In the case of `O=C(/C=C/c1ccc(-c2ccc(Cl)c(Cl)c2)o1)c1ccc(F)cc1`, the “inhibition zone (IZ)” value in the assay with Proteus vulgaris is reported as 14 mm; with Priestia megaterium, 17 mm; in the assay on Staphylococcus aureus, 12 mm; in the assay with Escherichia coli, 16 mm. Also, the “diameter of the inhibition zone (DIZ)” value in the assay with Aspergillus niger stood at 14 mm.

With `O=C(/C=C/c1ccc(-c2ccc(Cl)c(Cl)c2)o1)c1ccccc1O`, the “inhibition zone (IZ)” value is given as 11 mm with Proteus vulgaris, 12 mm in the assay with Priestia megaterium, 16 mm in the assay with Staphylococcus aureus and 14 mm in the assay with Escherichia coli. The “diameter of the inhibition zone (DIZ)” value in the assay on Aspergillus niger is given as 18 mm.

`COc1ccc(C(=O)/C=C/c2ccc(-c3ccc(Cl)c(Cl)c3)o2)cc1`: the “inhibition zone (IZ)” value in the assay with Proteus vulgaris amounted to 19 mm; in the assay with Priestia megaterium it was 13 mm; with Staphylococcus aureus, 20 mm; with Escherichia coli it was 12 mm. The “diameter of the inhibition zone (DIZ)” value with Aspergillus niger worked out at 19 mm.

Regarding `CC1(C)S[C@@H]2[C@H](NC(=O)[C@H](N)c3ccc(O)cc3)C(=O)N2[C@H]1C(=O)O` [AMOXICILLIN], the “inhibition zone (IZ)” value was found to be 20 mm in the assay with Proteus vulgaris, 24 mm with Priestia megaterium, 22 mm with Staphylococcus aureus and 18 mm in the assay on Escherichia coli. The “diameter of the inhibition zone (DIZ)” value in the assay with Aspergillus niger was 0 mm.

`CC1(C)S[C@@H]2[C@H](NC(=O)[C@H](N)c3ccccc3)C(=O)N2[C@H]1C(=O)O` [AMPICILLIN]: the “inhibition zone (IZ)” value was 17 mm in the assay with Proteus vulgaris, 22 mm in the assay on Priestia megaterium, 20 mm with Staphylococcus aureus and 19 mm in the assay with Escherichia coli. Also, in the assay with Aspergillus niger, the “diameter of the inhibition zone (DIZ)” value amounted to 0 mm.

Turning to `COC1=CC(=O)C[C@@H](C)[C@]12Oc1c(Cl)c(OC)cc(OC)c1C2=O` [GRISEOFULVIN], the “inhibition zone (IZ)” value with Proteus vulgaris, in the assay with Priestia megaterium, in the assay on Staphylococcus aureus and in the assay on Escherichia coli was 0 mm in each case. In addition, in the assay on Aspergillus niger, the “diameter of the inhibition zone (DIZ)” value came to 26 mm.

For `CCn1cc(C(=O)O)c(=O)c2cc(F)c(N3CCNCC3)cc21` [NORFLOXACIN], the “inhibition zone (IZ)” value in the assay on Proteus vulgaris amounted to 21 mm; with Priestia megaterium, 23 mm; in the assay with Staphylococcus aureus, 19 mm; with Escherichia coli, 20 mm. Moreover, in the assay with Aspergillus niger, the “diameter of the inhibition zone (DIZ)” value stood at 0 mm.

With `CC1(C)S[C@@H]2[C@H](NC(=O)Cc3ccccc3)C(=O)N2[C@H]1C(=O)O` [PENICILLIN G], the “inhibition zone (IZ)” value in the assay with Proteus vulgaris amounted to 23 mm; with Priestia megaterium, 25 mm; in the assay on Staphylococcus aureus, 24 mm; with Escherichia coli it was 22 mm. In addition, the “diameter of the inhibition zone (DIZ)” value in the assay on Aspergillus niger is given as 0 mm.

With `CO[C@H]1/C=C/O[C@@]2(C)Oc3c(C)c(O)c4c(O)c(c(/C=N/N5CCN(C)CC5)c(O)c4c3C2=O)NC(=O)/C(C)=C\C=C\[C@H](C)[C@H](O)[C@@H](C)[C@@H](O)[C@@H](C)[C@H](OC(C)=O)[C@@H]1C` [RIFAMPIN], in assay [1], the inhibition of growth at 0.25 µg/mL came to 98%.
